Results reported in article PMC7531004, “Discovery of gramicidin A analogues with altered activities by multidimensional screening of a one-bead-one-compound library” (Nature Communications, 2020).
Where a SMILES comes first, the peptide text is derived from it. [ ]: non-standard residue; d: D form. The star is where a group is joined. NHCH2CH2OH = OCCN*; For = O=C*

Experiments:
[1] = test system: P388 mouse leukemia cells; details: 92 h
Outline: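 First, library peptide stocks are diluted 250-fold in RPMI1640 with 10% heat-inactivated FBS. Next, they are mixed with P388 cells to give 1 × 10^4 cells/mL and incubated 92 h at 37 °C, 5% CO2. Finally, viability (%) is scored by WST-1 absorbance at 415 nm.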

[2] = H+/Na+ transport assay of bead-derived peptides (one-point); assay type: biochemical; design: key: relative activity; mean of two control wells = 1.00; details: bead-derived peptide solution, EYPC/EYPG LUVs;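 further: relative to parent gramicidin A activity set to 1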
Outline: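 Values are normalized fluorescence, with Triton X-100 defining 100% and untreated LUVs 0%, and the two control wells averaging 1.00. Vesicles carried 1.0 mM pyranine and included egg yolk phosphatidylglycerol. Peptides were incubated with them 30 min at room temperature.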

[3] = test system: Streptococcus pyogenes SSI-9; assay: Antibacterial activity assay of bead-derived peptides (three concentrations); assay type: cell-based; design: key: +++: inhibition by the 640-fold diluted peptide solution; ++: inhibition by the 160-fold diluted solution; +: inhibition by the 40-fold diluted solution; -: no inhibition; details: S. pyogenes, bead-derived peptide solution, three concentrations
Outline: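 Three stock dilutions per peptide (none, 4-fold, 16-fold in DMSO) are screened in 96-well format. The medium is blood-supplemented cation-adjusted MHB, inoculated with 2 × 10^5 CFU S. pyogenes SSI-9. Growth is read as cell precipitation at 18 h, 37 °C.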

CC(C)C[C@@H](NC(=O)[C@H](C)NC(=O)CNC(=O)[C@@H](NC=O)C(C)C)C(=O)N[C@@H](C)C(=O)N[C@H](CC(C)C)C(=O)N[C@H](C(=O)N[C@H](CC(C)C)C(=O)N[C@@H](Cc1c[nH]c2ccccc12)C(=O)N[C@@H](C(=O)N[C@@H](Cc1c[nH]c2ccccc12)C(=O)N[C@H](CC(C)C)C(=O)N[C@@H](Cc1c[nH]c2ccccc12)C(=O)N[C@H](CC(C)C)C(=O)N[C@@H](Cc1c[nH]c2ccccc12)C(=O)NCCO)[C@H](C)O)C(C)C [compound 11408] (For-VGA[dL]A[dL]V[dL]W[dT]W[dL]W[dL]W-NHCH2CH2OH)
cell viability/% [1]: 57.5%
H+/Na+ transport activity normalized against the value of 1 (1.00) [2]: 1.30
antibacterial activity [3]: -

CC(C)C[C@@H](NC(=O)[C@H](Cc1c[nH]c2ccccc12)NC(=O)[C@H](NC(=O)[C@H](Cc1c[nH]c2ccccc12)NC(=O)[C@H](NC(=O)[C@@H](NC(=O)[C@H](NC(=O)[C@H](C)NC(=O)[C@H](NC(=O)[C@H](C)NC(=O)CNC(=O)[C@@H](NC=O)C(C)C)[C@H](C)O)C(C)C)C(C)C)C(C)C)C(C)C)C(=O)N[C@@H](Cc1c[nH]c2ccccc12)C(=O)N[C@@H](C(=O)N[C@@H](Cc1c[nH]c2ccccc12)C(=O)NCCO)C(C)C [compound 10653] (For-VGA[dT]A[dV]V[dV]W[dV]W[dL]W[dV]W-NHCH2CH2OH)
cell viability/% [1]: 44.1%
H+/Na+ transport activity normalized against the value of 1 (1.00) [2]: 1.04
antibacterial activity [3]: -

CNC(=O)C[C@@H](NC(=O)[C@@H](NC(=O)[C@@H](CC(C)C)NC(=O)[C@H](C)NC(=O)[C@@H](CC(C)C)NC(=O)[C@H](C)NC(=O)CNC(=O)[C@@H](NC=O)C(C)C)C(C)C)C(=O)N[C@@H](Cc1c[nH]c2ccccc12)C(=O)N[C@H](CC(C)C)C(=O)N[C@@H](Cc1c[nH]c2ccccc12)C(=O)N[C@H](CC(C)C)C(=O)N[C@@H](Cc1c[nH]c2ccccc12)C(=O)N[C@@H](C(=O)N[C@@H](Cc1c[nH]c2ccccc12)C(=O)NCCO)[C@H](C)O [compound 3929] (For-VGA[dL]A[dL]V[dD](NHMe)W[dL]W[dL]W[dT]W-NHCH2CH2OH)
cell viability/% [1]: 100.0%
H+/Na+ transport activity normalized against the value of 1 (1.00) [2]: 1.14
antibacterial activity [3]: -

CC(C)C[C@@H](NC(=O)[C@H](C)NC(=O)CNC(=O)[C@@H](NC=O)C(C)C)C(=O)N[C@@H](C)C(=O)N[C@H](CC(C)C)C(=O)N[C@H](C(=O)N[C@H](CC(C)C)C(=O)N[C@@H](Cc1c[nH]c2ccccc12)C(=O)N[C@H](CC(C)C)C(=O)N[C@@H](Cc1c[nH]c2ccccc12)C(=O)N[C@H](CC(C)C)C(=O)N[C@@H](Cc1c[nH]c2ccccc12)C(=O)N[C@@H](C(=O)N[C@@H](Cc1c[nH]c2ccccc12)C(=O)NCCO)C(C)C)C(C)C [compound 2205] (For-VGA[dL]A[dL]V[dL]W[dL]W[dL]W[dV]W-NHCH2CH2OH)
cell viability/% [1]: 0.0%
H+/Na+ transport activity normalized against the value of 1 (1.00) [2]: 1.01
antibacterial activity [3]: -

CC(C)C[C@@H](NC(=O)[C@H](Cc1c[nH]c2ccccc12)NC(=O)[C@H](NC(=O)[C@H](Cc1c[nH]c2ccccc12)NC(=O)[C@H](NC(=O)[C@H](Cc1c[nH]c2ccccc12)NC(=O)[C@@H](CC(C)C)NC(=O)[C@@H](NC(=O)[C@H](NC(=O)[C@H](C)NC(=O)[C@H](NC(=O)[C@H](C)NC(=O)CNC(=O)[C@@H](NC=O)C(C)C)C(C)C)C(C)C)C(C)C)C(C)C)C(C)C)C(=O)N[C@@H](Cc1c[nH]c2ccccc12)C(=O)NCCO [compound 12721] (For-VGA[dV]A[dV]V[dL]W[dV]W[dV]W[dL]W-NHCH2CH2OH)
cell viability/% [1]: 51.7%
H+/Na+ transport activity normalized against the value of 1 (1.00) [2]: 1.04
antibacterial activity [3]: +

CNC(=O)C[C@@H](NC(=O)[C@@H](NC(=O)[C@@H](CC(C)C)NC(=O)[C@H](C)NC(=O)[C@H](NC(=O)[C@H](C)NC(=O)CNC(=O)[C@@H](NC=O)C(C)C)C(C)C)C(C)C)C(=O)N[C@@H](Cc1c[nH]c2ccccc12)C(=O)N[C@H](CC(C)C)C(=O)N[C@@H](Cc1c[nH]c2ccccc12)C(=O)N[C@@H](C(=O)N[C@@H](Cc1c[nH]c2ccccc12)C(=O)N[C@@H](C(=O)N[C@@H](Cc1c[nH]c2ccccc12)C(=O)NCCO)C(C)C)C(C)C [compound 11349] (For-VGA[dV]A[dL]V[dD](NHMe)W[dL]W[dV]W[dV]W-NHCH2CH2OH)
cell viability/% [1]: 34.3%
H+/Na+ transport activity normalized against the value of 1 (1.00) [2]: 1.00
antibacterial activity [3]: -

CC(C)C[C@@H](NC(=O)[C@H](C)NC(=O)CNC(=O)[C@@H](NC=O)C(C)C)C(=O)N[C@@H](C)C(=O)N[C@@H](C(=O)N[C@H](C(=O)N[C@@H](C(=O)N[C@@H](Cc1c[nH]c2ccccc12)C(=O)N[C@@H](C(=O)N[C@@H](Cc1c[nH]c2ccccc12)C(=O)N[C@H](CC(C)C)C(=O)N[C@@H](Cc1c[nH]c2ccccc12)C(=O)N[C@@H](C(=O)N[C@@H](Cc1c[nH]c2ccccc12)C(=O)NCCO)C(C)C)C(C)C)C(C)C)C(C)C)C(C)C [compound 9036] (For-VGA[dL]A[dV]V[dV]W[dV]W[dL]W[dV]W-NHCH2CH2OH)
cell viability/% [1]: 94.7%
H+/Na+ transport activity normalized against the value of 1 (1.00) [2]: 1.18
antibacterial activity [3]: +

CNC(=O)C[C@@H](NC(=O)[C@@H](NC(=O)[C@@H](CC(C)C)NC(=O)[C@H](C)NC(=O)[C@@H](CC(C)C)NC(=O)[C@H](C)NC(=O)CNC(=O)[C@@H](NC=O)C(C)C)C(C)C)C(=O)N[C@@H](Cc1c[nH]c2ccccc12)C(=O)N[C@@H](C(=O)N[C@@H](Cc1c[nH]c2ccccc12)C(=O)N[C@H](CC(C)C)C(=O)N[C@@H](Cc1c[nH]c2ccccc12)C(=O)N[C@H](CC(C)C)C(=O)N[C@@H](Cc1c[nH]c2ccccc12)C(=O)NCCO)C(C)C [compound 6703] (For-VGA[dL]A[dL]V[dD](NHMe)W[dV]W[dL]W[dL]W-NHCH2CH2OH)
cell viability/% [1]: 100.0%
H+/Na+ transport activity normalized against the value of 1 (1.00) [2]: 1.17
antibacterial activity [3]: -

CC(C)C[C@@H](NC(=O)[C@H](C)NC(=O)CNC(=O)[C@@H](NC=O)C(C)C)C(=O)N[C@@H](C)C(=O)N[C@@H](C(=O)N[C@H](C(=O)N[C@@H](C(=O)N[C@@H](Cc1c[nH]c2ccccc12)C(=O)N[C@@H](C(=O)N[C@@H](Cc1c[nH]c2ccccc12)C(=O)N[C@H](CC(C)C)C(=O)N[C@@H](Cc1c[nH]c2ccccc12)C(=O)N[C@@H](C(=O)N[C@@H](Cc1c[nH]c2ccccc12)C(=O)NCCO)C(C)C)C(C)C)[C@H](C)O)C(C)C)C(C)C [compound 4427] (For-VGA[dL]A[dV]V[dT]W[dV]W[dL]W[dV]W-NHCH2CH2OH)
cell viability/% [1]: 100.0%
H+/Na+ transport activity normalized against the value of 1 (1.00) [2]: 1.18
antibacterial activity [3]: -

CC(C)C[C@@H](NC(=O)[C@H](Cc1c[nH]c2ccccc12)NC(=O)[C@H](NC(=O)[C@H](Cc1c[nH]c2ccccc12)NC(=O)[C@@H](CC(C)C)NC(=O)[C@H](Cc1c[nH]c2ccccc12)NC(=O)[C@H](NC(=O)[C@@H](NC(=O)[C@H](NC(=O)[C@H](C)NC(=O)[C@H](NC(=O)[C@H](C)NC(=O)CNC(=O)[C@@H](NC=O)C(C)C)C(C)C)C(C)C)C(C)C)C(C)C)[C@H](C)O)C(=O)N[C@@H](Cc1c[nH]c2ccccc12)C(=O)NCCO [compound 1849] (For-VGA[dV]A[dV]V[dV]W[dL]W[dT]W[dL]W-NHCH2CH2OH)
cell viability/% [1]: 100.0%
H+/Na+ transport activity normalized against the value of 1 (1.00) [2]: 1.07
antibacterial activity [3]: +
